According to patent publication US20240226175A1, “THERAPEUTIC AGENT USING GENOME-EDITED PLURIPOTENT STEM CELL” (KEIO UNIVERSITY, priority 2020, published 2024):

Key:
Assay type in all cases: cell-based, human
[1] = test system: (yCD-NSCs); experiment: Response of yCD-NSCs to 5-FU; conditions: ACTB (yCD-NSCs)
[2] = test system: glioma cell line U87; experiment: Antitumor effect in co-culture with 5-FC (CCK-8), U87; conditions: without TSC1/TSC2
Protocol: (§1) Glioma cell line U87 (1×10^4 cells) or glioma stem cell line hG008 (1×10^4 cells) and TSC1 or TSC2 (5×10^3 cells) were co-cultured for 1 day using a low adhesive 96-well culture plate (Prime Surface 96V, manufactured by Sumitomo Bakelite Co., Ltd.), then 5-FC (2 μg/ml) was added, and cell deaths were assessed using a cell proliferation/cytotoxicity assay kit Cell Counting Kit-8 (CCK-8) 5 days later.

[3] = test system: glioma stem cell line hG008; experiment: Antitumor effect in co-culture with 5-FC (CCK-8), hG008; conditions: without TSC1/TSC2
Protocol: as §1

| response to 5-FU [1] | SMILES | tumor cell death with 5-FC alone [2] | tumor cell death with 5-FC alone [3] |
| --- | --- | --- | --- |
| not favorable | O=c1[nH]cc(F)c(=O)[nH]1 [5-FU, 5-fluorouracil] | – | – |
| – | Nc1nc(=O)[nH]cc1F [5-FC, 5-fluorocytosine] | no particular tumor cell death was observed | no particular tumor cell death was observed |
